Test results: patent US4929614A, “Benzodiazepines, process and intermediates for the preparation thereof and their application in therapy” (Jouveinal S.A., priority 1988, dated 1990)
Where two headings read alike, the source gives them in different places.

Columns and labels:
[1] = test system: inhibition of gastric emptying caused by sulphated CCK-8; assay: Gastric emptying model in mice: antagonism of the inhibition of gastric emptying caused by sulphated CCK-8; assay type: in vivo, mice (SWISS male); details: Mus musculus, sulphated CCK-8 80 μg/kg, sc
Acute toxicity = details: mouse, in vivo, male mice
[2] = molecular target: T1, CCK receptors of rat pancreas (Rattus norvegicus, UniProt P30551); assay: Inhibition of binding of sulphated [125I]-CCK8 to receptors of rat pancreas plasma membranes; details: for ratio of the IC50 for the brain receptors to the IC50 for the pancreas receptors: guinea-pig brain / rat pancreas
T1 construct: of rat pancreas plasma membranes; from tissue; host or cells: rat pancreas plasma membranes (SD50 males; animals from IFFA CREDO)
T1 sequence (P30551 1-444): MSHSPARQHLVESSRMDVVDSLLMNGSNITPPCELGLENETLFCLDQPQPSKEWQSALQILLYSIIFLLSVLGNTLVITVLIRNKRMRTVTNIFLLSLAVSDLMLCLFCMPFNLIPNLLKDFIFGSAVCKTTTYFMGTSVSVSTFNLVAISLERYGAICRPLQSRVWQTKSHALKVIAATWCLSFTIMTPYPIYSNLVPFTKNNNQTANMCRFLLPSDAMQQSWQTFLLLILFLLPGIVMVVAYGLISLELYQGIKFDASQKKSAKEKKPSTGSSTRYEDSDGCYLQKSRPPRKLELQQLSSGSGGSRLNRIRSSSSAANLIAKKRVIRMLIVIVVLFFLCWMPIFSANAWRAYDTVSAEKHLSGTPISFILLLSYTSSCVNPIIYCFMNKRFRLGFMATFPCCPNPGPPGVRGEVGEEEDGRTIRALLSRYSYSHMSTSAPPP
Text: of rat pancreas plasma membranes (SD50 males, IFFA CREDO, 200-225 g)

[3] = molecular target: T2, CCK receptors of guinea-pig brain (Cavia porcellus, UniProt H0VZC5); assay: Inhibition of binding of sulphated [125I]-CCK8 to receptors of guinea-pig brain membranes
T2 construct: of guinea-pig brain membranes; from tissue; host or cells: guinea-pig brain membranes (males; animals from COB LABO)
T2 sequence (H0VZC5 1-426): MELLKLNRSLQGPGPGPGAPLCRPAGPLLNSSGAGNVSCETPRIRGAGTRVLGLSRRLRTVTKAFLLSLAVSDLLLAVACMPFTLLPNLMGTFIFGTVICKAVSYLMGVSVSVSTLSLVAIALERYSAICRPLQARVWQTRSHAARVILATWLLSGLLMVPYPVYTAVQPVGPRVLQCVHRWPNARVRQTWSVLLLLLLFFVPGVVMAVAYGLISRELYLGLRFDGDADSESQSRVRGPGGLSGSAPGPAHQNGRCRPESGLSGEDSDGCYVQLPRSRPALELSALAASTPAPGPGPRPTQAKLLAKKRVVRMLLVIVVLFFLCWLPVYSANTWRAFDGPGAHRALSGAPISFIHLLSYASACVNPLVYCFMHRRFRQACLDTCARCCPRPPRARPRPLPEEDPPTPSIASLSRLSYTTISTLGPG
Text: of guinea-pig brain membranes (males, COB LABO, 325-350 g) according to the protocol described by INNIS R. B. and SNYDER S. M., Eur. J. Pharmacol., 65, 123-124, 1980.

IRWIN's tests (behavior) = details: for IRWIN (first dose modifying one of the parameters of behavior): male mice; for selectivity ratio: mouse, in vivo
Protocol: The acute toxicity was evaluated and IRWIN's tests (IRWIN S., Psychopharmacologia, 13, 222-257, 1968) were performed in male mice (20-21 g).

[4] = guinea-pig brain membranes, read-out: Binding (IC50) [125I]-CCK8-SO4 Brain

For `CN1C(=O)C(NC(=O)c2cc3ccccc3[nH]2)N=C(c2ccccc2)c2ccccc21` (racemic) [IIa, reference compound], which ED50 [1] is on record?
Its ED50 is 0.05 mg/kg.

And the LD50 (Acute toxicity)?
The LD50 was > 600 mg/kg.

With `O=C(NC1N=C(c2ccccc2)c2cccc3c2N(CC3)C1=O)c1cc2ccccc2[nH]1` (centres unmarked) [Ia, 4-(indol-2-ylcarbonylamino)-phenyl-6-tetrahydro-1,2,3,4-pyrrolo[3,2,1-jk][1,4]benzodiazepin-3-one] as the molecule, how does the IC50 [2] read?
Its IC50 is 5.3 nM.

And the “ratio of the IC50 for the brain receptors to the IC50 for the pancreas receptors” value (shortened to “ratio of the IC50”) [2]?
Its value is 209.4.

What about the IC50 [3] of the same molecule?
The IC50 was 1110 nM.

And the ED50 [1]?
Its ED50 is 0.104 mg/kg.

And the LD50 (Acute toxicity)?
The LD50 was > 1000 mg/kg.

What about the “IRWIN (first dose modifying one of the parameters of behavior)” value (“IRWIN” for short) (IRWIN's tests (behavior)) of the same molecule?
The value was > 1000 mg/kg.

And the selectivity ratio (IRWIN's tests (behavior))?
Its selectivity ratio is > 7600.

Which results are given for `O=C(NC1N=C(c2ccccc2)c2cccc3c2N(CC3)C1=O)c1ccc(Cl)cc1` (centres unmarked) [Ib, 4-(4-Chlorobenzoylamino)-6-phenyl-1,2,3,4-tetrahydropyrrolo-[3,2,1-jk]benzodiazepin[1,4]-3-one]?
IC50 [2]: 37 nM; ratio of the IC50 for the brain receptors to the IC50 for the pancreas receptors [2]: 83.8; IC50 [3, 4]: 3100 nM

Which IC50 [2] does the source give for `O=C(NC1N=C(c2ccccc2)c2cccc3c2N(CC3)C1=O)c1cccc(I)c1` (centres unmarked) [Ic, 4-(3-Iodobenzoylamino)-6-phenyl-1,2,3,4-pyrrolo[3,2,1-j,k][1,4]benzodiazepin-3-one] here?
The IC50 was 45 nM.

And the “ratio of the IC50” value [2]?
The value was 195.6.

What about the IC50 [3, 4] of the same molecule?
The IC50 was 8800 nM.

With `O=C(N[C@H]1N=C(c2ccccc2)c2cccc3c2N(CC3)C1=O)c1cc2ccccc2[nH]1` [Ie, (-)-(4S)-4-(2-Indolylcarbonylamido)-6-phenyl-1,2,3,4-tetrahydropyrrolo[3,2,1-jk][1,4]benzodiazepin-3-one] as the molecule, how does the IC50 [2] read?
The IC50 was 1.5 nM.

And the “ratio of the IC50” value [2]?
Its value is 318.0.

And the IC50 [3]?
Its IC50 is 477 nM.

And the ED50 [1]?
The ED50 was 0.087 mg/kg.

And the LD50 (Acute toxicity)?
Its LD50 is > 1000 mg/kg.

And the “IRWIN” value (IRWIN's tests (behavior))?
Its value is > 1000 mg/kg.

What about the selectivity ratio (IRWIN's tests (behavior)) of the same molecule?
Its selectivity ratio is > 11000.

For `O=C(N[C@@H]1N=C(c2ccccc2)c2cccc3c2N(CC3)C1=O)c1cc2ccccc2[nH]1` [If, (+)-(4R)-4-(2-Indolycarbonylamino)-6-phenyl-1,2,3,4-tetrahydropyrrolo[3,2,1-jk][1,4]benzodiazepin-3-one], which IC50 [2] is on record?
The IC50 was 8640 nM.

What about the “ratio of the IC50” value [2] of the same molecule?
Its value is 2.8.

What about the IC50 [3] of the same molecule?
The IC50 was 24000 nM.

For `O=C(NC1N=C(c2ccccc2F)c2cccc3c2N(CC3)C1=O)c1cc2ccccc2[nH]1` (centres unmarked) [Ig], which IC50 [2] is on record?
Its IC50 is 0.023 nM.

And the “ratio of the IC50” value [2]?
Its value is 15913.

And the IC50 [3]?
The IC50 was 366 nM.

What about the ED50 [1] of the same molecule?
The ED50 was 0.076 mg/kg.

And the LD50 (Acute toxicity)?
Its LD50 is > 1000 mg/kg.

What about the “IRWIN” value (IRWIN's tests (behavior)) of the same molecule?
The value was > 300 mg/kg.

What about the selectivity ratio (IRWIN's tests (behavior)) of the same molecule?
Its selectivity ratio is > 3900.

Which results are given for `O=C(NC1N=C(c2ccccc2F)c2cc(Cl)cc3c2N(CC3)C1=O)c1cc2cc(Cl)ccc2[nH]1` (centres unmarked) [Il, 8-chloro-4-[(5-chloro-2-indolyl)carbonylamino]-6-(2-fluorophenyl)-1,2,3,4-tetrahydropyrrolo[3,2,1-jk][1,4]benzodiazepin-3-one]?
IC50 [2]: 12.3 nM; ratio of the IC50 for the brain receptors to the IC50 for the pancreas receptors [2]: 2552.2; IC50 [3, 4]: 21400 nM

Which IC50 [2] does the source give for `O=C(NC1N=C(c2ccccc2F)c2cc(Cl)cc3c2N(CC3)C1=O)c1cc(Cl)cc(Cl)c1` (centres unmarked) [Im, 8-chloro-4-(3,5-dichlorobenzoylamino)-6-(2-fluorophenyl)-1,2,3,4-tetrahydropyrrolo[3,2,1-jk][1,4]benzodiazepin-3-one] here?
Its IC50 is 30.6 nM.

And the “ratio of the IC50” value [2]?
Its value is 831.1.

And the IC50 [3, 4]?
Its IC50 is 25400 nM.

With `O=C(NC1N=C(c2ccccc2)c2cccc3c2N(CCC3)C1=O)c1cc2ccccc2[nH]1` (centres unmarked) [In, 5-(2-indolylcarbonylamino)-7-phenyl-1,2,3,3a,4,5-hexahydropyrido[3,2,1-jk][1,4]benzodiazepin-4-one] as the molecule, how does the IC50 [2] read?
The IC50 was 3.9 nM.

What about the “ratio of the IC50” value [2] of the same molecule?
The value was 104.4.

What about the IC50 [3] of the same molecule?
Its IC50 is 407 nM.
